# According to US8415342B2, “Besifloxacin ophthalmic composition for the treatment or control of infection” (Bausch & Lomb Incorporated, priority 2008, dated 2013):
# Key:
# E. coli = assay: In vitro multistep selection for besifloxacin-resistant mutants; format: cell-based; conditions: for MIC: Escherichia coli
# Method: (§1) Furthermore, an experiment was conducted to assess the mechanism of action of besifloxacin in S. pneumoniae, S. aureus, and E. coli via step selections for isolates with decreased susceptibility to besifloxacin, as well as by testing for altered susceptibilities of ciprofloxacin-resistant variants of all three species containing genetically defined mutations in the quinolone resistance determining regions (QRDRs) of structural genes encoding DNA gyrase and topoisomerase IV (Table 2).
# (§2) Besifloxacin is a potent antibacterial agent by virtue of its efficient biochemical inhibition of type II bacterial topoisomerases at low micromolar levels. Besifloxacin was associated with a low mutant prevention concentration (MPC), especially in the two Gram-positive pathogens, S. aureus and S. pneumoniae, in which the MPCs were only four times higher than the MICs for those organisms. Correspondingly, very few drug-resistant mutants were obtained in in vitro experiments for those two species (<1 mutant per 10^10 cells).
# (§3) As a consequence, strains with high-level resistance would only emerge if both targets were mutated simultaneously, an event that is not very likely in strains that lack predisposing mutations. A dual-targeting mechanism of action for besifloxacin is supported by the following experimental evidence: • In S. aureus and S. pneumoniae, single (1st step) mutants were extremely rare (<1/10^10 cells) and only few or no double (2nd step) mutants were obtained (Table 3). • Single mutations in the gyrA or in the parC gene were obtained in S. aureus as well as in S. pneumoniae. […] By comparison, all single mutations in quinolone-resistant strains of E. coli were mapped to either the gyrA or the gyrB gene consistent with the general finding that quinolones primarily target the DNA gyrase in Gram-negative bacteria. • Biochemical experiments with the purified DNA gyrase and topoisomerase IV enzymes from S. pneumoniae and E. coli were performed.
# S. pneumoniae = assay: as above; format: cell-based; conditions: for MIC: Streptococcus pneumoniae
# Method: as §1, §2, §3
# S. aureus = assay: as above; format: cell-based; conditions: for MIC: Staphylococcus aureus
# Method: as §1, §2, §3
# [1] = Nonclinical ocular tolerance, QID dosing for 28 days; format: in vivo
# Source text: ERG measurements were included in the studies due to the known retinal toxicity associated with some fluoroquinolones.
# [2] = Nonclinical ocular and systemic pharmacokinetics after topical ocular administration; format: in vivo; conditions: for peak plasma besifloxacin concentration, on average: topical ocular administration
# Source text: Results from the nonclinical ocular pharmacokinetic (PK) studies indicate that topical ocular administration of besifloxacin ophthalmic suspension, 0.6%, is associated with rapid absorption and distribution of besifloxacin into ocular tissues. […] However, based on the extensive ocular safety data available for besifloxacin, no adverse consequences are expected.
# Systemic exposure to besifloxacin following topical ocular administration was low, with peak plasma besifloxacin concentrations of 7.6 and 9.2 ng/mL, respectively, on average.
# [3] = system: ocular isolates (S. pneumoniae, S. epidermidis, H. influenzae, and S. aureus); assay: MBC versus MIC, all recent ocular isolates tested; format: cell-based
# Source text: The success of in vivo antimicrobial action depends to a large extent on the host's defense mechanisms, which ultimately sequester and kill the microorganisms that have been reduced by the bacteriostatic/bactericidal action of the antibacterial agent. Thus, it is also of interest to profile the bactericidal activity of antimicrobial agents. The assessment of in vitro bactericidal activity can be accomplished in multiple ways, for example, the time-kill method or the determination of the minimum bactericidal concentration (MBC). […] Bactericidal agents are characterized by low MBC:MIC ratios.
# [4] = 2nd step, NMO = No mutants obtained
structure (smiles),measurement,setting,value
"N[C@@H]1CCCCN(c2c(F)cc3c(=O)c(C(=O)O)cn(C4CC4)c3c2Cl)C1 [Besifloxacin, (R)-(+)-(3-amino-2,3,4,5,6,7-hexahydro-1H-azepin-1-yl)-8-chloro-1-cyclopropyl-6-fluoro-1,4,-dihydro-4-oxo-3-quinolinecarboxylic acid]",MPC (Mutant prevention concentration),E. coli; 1st step,4 µg/mL
same,MSW (Mutant Selection Window),E. coli; 1st step,0.12 to 2 µg/mL
same,Mutation rate at 4 × MIC,E. coli; 1st step,3.8 × 10^−8
same,MPC (Mutant prevention concentration),E. coli; 2nd step,16 µg/mL
same,MSW (Mutant Selection Window),E. coli; 2nd step,2 to 8 µg/mL
same,Mutation rate at 4 × MIC,E. coli; 2nd step,6 × 10^−9
same,MIC,E. coli; 1st step,0.12 µg/mL
same,MIC,E. coli; 2nd step,2 µg/mL
same,MPC (Mutant prevention concentration),S. pneumoniae; 1st step,0.5 µg/mL
same,MSW (Mutant Selection Window),S. pneumoniae; 1st step,0.12 to 0.25 µg/mL
same,Mutation rate at 4 × MIC,S. pneumoniae; 1st step,<7 × 10^−10
same,MPC (Mutant prevention concentration),S. pneumoniae; 2nd step,2 to 4 µg/mL
same,MSW (Mutant Selection Window),S. pneumoniae; 2nd step,0.5 to 2 µg/mL
same,Mutation rate at 4 × MIC,S. pneumoniae; 2nd step,2.4 × 10^−8
same,MIC,S. pneumoniae; 1st step,0.12 µg/mL
same,MIC,S. pneumoniae; 2nd step,0.5 µg/mL
same,"frequency of drug-resistant (single, 1st step) mutants",S. pneumoniae; in vitro,< 1 per 10^10 cells
same,MPC (Mutant prevention concentration),S. aureus; 1st step,0.12 µg/mL
same,MSW (Mutant Selection Window),S. aureus; 1st step,0.03 to 0.06 µg/mL
same,Mutation rate at 4 × MIC,S. aureus; 1st step,3.3 × 10^−10
same,MPC (Mutant prevention concentration),S. aureus; 2nd step,0.25 µg/mL
same,MSW (Mutant Selection Window),S. aureus; [4],NMO
same,Mutation rate at 4 × MIC,S. aureus; [4],NMO
same,MIC,S. aureus; 1st step,0.03 µg/mL
same,MIC,S. aureus; 2nd step,0.25 µg/mL
same,"frequency of drug-resistant (single, 1st step) mutants",S. aureus; in vitro,< 1 per 10^10 cells
same,non-clinical ocular tolerance,[1],no adverse effects observed
same,Cmax,"[2]; non-excretory organs, topical or ocular, nonclinical, repeated (BID, TID, QID) topical ocular administration",< 25 ng/g
same,half-life,"[2]; ocular tissues, topical or ocular, nonclinical, topical ocular 0.6% suspension, read-out: apparent half-life of elimination from ocular tissues",> 5 h
same,"peak plasma besifloxacin concentration, on average",[2]; first of two groups not named ('respectively'),7.6 ng/mL
same,"peak plasma besifloxacin concentration, on average",[2]; second of two groups not named ('respectively'),9.2 ng/mL
same,isolates with MBC within 4-fold of the MIC,[3],more than 80%
